The test has as its target BTK (Homo sapiens (Human), UniProt Q06187). Nature of the test: Btk in vitro inhibitory activity (one of Method A TR-FRET, Method B electrophoretic mobility shift, Method C radiometric filter binding). In kind it is biochemical. A general note: In EMSA bound probe runs differently from free probe, usually more slowly.
[1] abbreviates: determined using one of the methods of Example 355a, 355b and 355c, read-out: BTK IC50.

Like-named read-outs stand apart in the source and are kept apart here.

Sequence of BTK (Q06187 whole entry): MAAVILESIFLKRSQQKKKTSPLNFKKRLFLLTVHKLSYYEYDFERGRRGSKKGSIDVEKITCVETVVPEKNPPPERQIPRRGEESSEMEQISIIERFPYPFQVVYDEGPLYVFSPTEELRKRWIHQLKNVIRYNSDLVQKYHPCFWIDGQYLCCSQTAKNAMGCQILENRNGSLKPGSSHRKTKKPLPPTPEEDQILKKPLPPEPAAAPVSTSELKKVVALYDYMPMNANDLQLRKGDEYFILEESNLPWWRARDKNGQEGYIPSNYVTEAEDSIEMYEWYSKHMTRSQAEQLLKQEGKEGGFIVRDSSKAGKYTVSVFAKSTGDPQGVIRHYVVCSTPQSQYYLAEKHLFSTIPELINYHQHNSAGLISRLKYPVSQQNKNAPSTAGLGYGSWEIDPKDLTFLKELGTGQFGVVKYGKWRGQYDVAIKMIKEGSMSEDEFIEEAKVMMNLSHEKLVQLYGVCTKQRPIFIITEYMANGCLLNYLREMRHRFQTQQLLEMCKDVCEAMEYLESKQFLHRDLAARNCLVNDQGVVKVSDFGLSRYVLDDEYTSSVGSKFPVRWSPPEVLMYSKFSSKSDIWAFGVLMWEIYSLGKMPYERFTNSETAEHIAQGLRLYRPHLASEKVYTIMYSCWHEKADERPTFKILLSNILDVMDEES

As to `NC(=O)c1nnc(N2CCC[C@@H](NC(=O)c3nc4ccccc4o3)C2)nc1Nc1ccc(C(=O)N2CCOCC2)cc1` [Example 97, (R)—N-(1-(6-carbamoyl-5-(4-(morpholine-4-carbonyl)phenylamino)-1,2,4-triazin-3-yl)piperidin-3-yl)benzo[d]oxazole-2-carboxamide], the IC50 by setting is: under setting [1], 10 to 100 nM; (read-out: Btk (IC50)) 10 to 100 nM.

With `NC(=O)c1ncc(N2CCC[C@@H](NC(=O)c3ccc(Cl)s3)C2)nc1Nc1ccc(C2CCN(C3CC3)CC2)cc1` [Example 314, (R)-5-(3-(5-chlorothiophene-2-carboxamido)piperidin-1-yl)-3-(4-(1-cyclopropylpiperidin-4-yl)phenylamino)pyrazine-2-carboxamide], the IC50 under setting [1] is 10 to 100 nM.

With `COc1ccc(C(=O)N[C@@H]2CCCN(c3nnc(C(N)=O)c(Nc4ccc(N5CCN(C6CCCC6)CC5)cc4)n3)C2)cc1` [Example 331, (R)-5-(4-(4-cyclopentylpiperazin-1-yl)phenylamino)-3-(3-(4-methoxybenzamido)piperidin-1-yl)-1,2,4-triazine-6-carboxamide], under setting [1], the IC50 was under 10 nM.

On to `NC(=O)c1nnc(N2CCC[C@@H](NC(=O)c3ccc(Oc4ccccc4)cc3)C2)nc1Nc1ccc(C(=O)N2CCOCC2)cc1` [Example 96, (R)-5-(4-(morpholine-4-carbonyl)phenylamino)-3-(3-(4-phenoxybenzamido)piperidin-1-yl)-1,2,4-triazine-6-carboxamide], for which the IC50 under setting [1] is 10 to 100 nM.

As to `NC(=O)c1nnc(N[C@@H]2CCNC2)nc1Nc1ccc(C(=O)N2CCOCC2)cc1` [Example 69, (R)-5-(4-(morpholine-4-carbonyl)phenylamino)-3-(pyrrolidin-3-ylamino)-1,2,4-triazine-6-carboxamide], the IC50 under setting [1] lay within 10 to 100 nM.

Turning to `NC(=O)c1ncc(N2CCC[C@@H](NC(=O)N3CCCCC3)C2)nc1Nc1ccc(C2CCN(C=O)CC2)cc1` [Example 148, (R)-3-(4-(1-formylpiperidin-4-yl)phenylamino)-5-(3-(piperidine-1-carboxamido)piperidin-1-yl)pyrazine-2-carboxamide], the IC50 runs as follows: under setting [1], under 10 nM; (read-out: Btk (IC50)) under 10 nM.

On to `CC#CC(=O)N[C@@H]1CCCN(c2nnc(C(N)=O)c(Nc3ccc(C(=O)N4CCOCC4)cc3)n2)C1` [Example 23, (R)-3-(3-but-2-ynamidopiperidin-1-yl)-5-(4-(morpholine-4-carbonyl)phenylamino)-1,2,4-triazine-6-carboxamide], for which the IC50 under setting [1] was 10 to 100 nM.

Take `NC(=O)c1nnc(N2CCC[C@@H](NC(=O)c3ccc4c(c3)nnn4C3CC3)C2)nc1Nc1ccc(C(=O)N2CCOCC2)cc1` [Example 102, (R)—N-(1-(6-carbamoyl-5-(4-(morpholine-4-carbonyl)phenylamino)-1,2,4-triazin-3-yl)piperidin-3-yl)-1-cyclopropyl-1H-benzo[d][1,2,3]triazole-5-carboxamide]: the IC50 was under 10 nM under setting [1] and under 10 nM (read-out: Btk (IC50)).

Consider `COc1ccc(C(=O)N[C@@H]2CCCN(c3cnc(C(N)=O)c(Nc4ccc(OCC[N+](C)(C)[O-])cc4)n3)C2)cc1` [Example 116, (R)-2-(4-(3-carbamoyl-6-(3-(4-methoxybenzamido)piperidin-1-yl)pyrazin-2-ylamino)phenoxy)-N,N-dimethylethanamine oxide], for which the IC50 under setting [1] fell in the range of 10 to 100 nM.

With `CN1CCCN([C@@H]2CCCN(c3cnc(C(N)=O)c(Nc4ccc(C5(C)CCN(C6CC6)CC5)cc4)n3)C2)C1=O` [Example 285, (R)-3-(4-(1-cyclopropyl-4-methylpiperidin-4-yl)phenylamino)-5-(3-(3-methyl-2-oxotetrahydropyrimidin-1(2H)-yl)piperidin-1-yl)pyrazine-2-carboxamide], the IC50 reads like this: under setting [1], under 10 nM; (read-out: Btk (IC50)) under 10 nM.

`NC(=O)c1nnc(N2CCC[C@@H](NC(=O)N3CCOCC3)C2)nc1Nc1ccc(C(=O)N2CCOCC2)cc1` [Example 38, (R)—N-(1-(6-carbamoyl-5-(4-(morpholine-4-carbonyl)phenylamino)-1,2,4-triazin-3-yl)piperidin-3-yl)morpholine-4-carboxamide]: the IC50 under setting [1] was in the range of 10 to 100 nM.

On to `C[C@@H]1[C@H](N2CCCN(C)C2=O)CCCN1c1cnc(C(N)=O)c(Nc2ccc(C3CCN(C4CCCC4)CC3)cc2)n1` [Example 281, 3-(4-(1-cyclopentylpiperidin-4-yl)phenylamino)-5-((2R,3R)-2-methyl-3-(3-methyl-2-oxotetrahydropyrimidin-1(2H)-yl)piperidin-1-yl)pyrazine-2-carboxamide], for which the IC50 reads like this: (Btk (IC50)) under 10 nM; under setting [1], under 10 nM.

Take `CC#CC(=O)N1CCC[C@@H](Nc2nnc(C(N)=O)c(Nc3ccc(S(C)(=O)=O)cc3)n2)C1` [Example 105, (R)-3-(1-but-2-ynoylpiperidin-3-ylamino)-5-(4-(methylsulfonyl)phenylamino)-1,2,4-triazine-6-carboxamide]: under setting [1], the IC50 is under 10 nM.

Turning to `COc1ccc(NC(=O)N[C@@H]2CCCN(c3nnc(C(N)=O)c(Nc4ccc(C(=O)N5CCOCC5)cc4)n3)C2)cc1` [Example 80, (R)-3-(3-(3-(4-methoxyphenyl)ureido)piperidin-1-yl)-5-(4-(morpholine-4-carbonyl)phenylamino)-1,2,4-triazine-6-carboxamide], the IC50 (Btk (IC50)) fell in the range of 10 to 100 nM and the IC50 under setting [1] was 10 to 100 nM.

On to `CN1CCN([C@@H]2CCCN(c3cnc(C(N)=O)c(Nc4ccc(C5(C)CCN(C=O)CC5)cc4)n3)C2)C1=O` [Example 268, (R)-3-(4-(1-formyl-4-methylpiperidin-4-yl)phenylamino)-5-(3-(3-methyl-2-oxoimidazolidin-1-yl)piperidin-1-yl)pyrazine-2-carboxamide], for which the IC50 runs as follows: under setting [1], under 10 nM; (read-out: Btk (IC50)) under 10 nM.

Consider `COc1ccc(C(=O)N[C@@H]2CCCN(c3cnc(C(N)=O)c(Nc4ccc(N5CCOCC5)cc4)n3)C2)cc1` [Example 123, (R)-5-(3-(4-methoxybenzamido)piperidin-1-yl)-3-(4-morpholinophenylamino)pyrazine-2-carboxamide], for which the IC50 under setting [1] is under 10 nM.

In the case of `NC(=O)c1ncc(N2CCC[C@@H](N3Cc4ccccc4C3=O)C2)nc1Nc1ccc(C2CCN(C3CCCC3)CC2)cc1` [Example 307, (R)-3-(4-(1-cyclopentylpiperidin-4-yl)phenylamino)-5-(3-(1-oxoisoindolin-2-yl)piperidin-1-yl)pyrazine-2-carboxamide], the IC50 under setting [1] is under 10 nM and the IC50 (read-out: Btk (IC50)) was under 10 nM.

For the compound `COc1ccc(C(=O)N[C@@H]2CCCN(c3cnc(C(N)=O)c(Nc4ccc(C5CCN(C(=O)N(C)C)CC5)cc4)n3)C2)cc1` [Example 142, (R)-3-(4-(1-(dimethylcarbamoyl)piperidin-4-yl)phenylamino)-5-(3-(4-methoxybenzamido)piperidin-1-yl)pyrazine-2-carboxamide], the IC50 runs as follows: (Btk (IC50)) 10 to 100 nM; under setting [1], 10 to 100 nM.

`CCN(C)C(=O)N[C@@H]1CCCN(c2cnc(C(N)=O)c(Nc3ccc(C4CCN(C)CC4)cc3)n2)C1` [Example 166, (R)-5-(3-(3-ethyl-3-methylureido)piperidin-1-yl)-3-(4-(1-methylpiperidin-4-yl)phenylamino)pyrazine-2-carboxamide]: the IC50 under setting [1] is under 10 nM.

On to `CC(C)C(=O)N[C@@H]1CCCN(c2nnc(C(N)=O)c(Nc3ccc(C(=O)N4CCOCC4)cc3)n2)C1` [Example 24, (R)-3-(3-isobutyramidopiperidin-1-yl)-5-(4-(morpholine-4-carbonyl)phenylamino)-1,2,4-triazine-6-carboxamide], for which the IC50 under setting [1] was in the range of 10 to 100 nM.

In the case of `NC(=O)c1nnc(N2CCC[C@@H](NC(=O)c3ccc4ncccc4c3)C2)nc1Nc1ccc(C(=O)N2CCOCC2)cc1` [Example 85, (R)—N-(1-(6-carbamoyl-5-(4-(morpholine-4-carbonyl)phenylamino)-1,2,4-triazin-3-yl)piperidin-3-yl)quinoline-6-carboxamide], the IC50 is 10 to 100 nM (Btk (IC50)) and 10 to 100 nM under setting [1].

Regarding `NC(=O)c1ncc(N2CCC[C@@H](NC(=O)c3ccc4nccn4c3)C2)nc1Nc1ccc(C2CCOCC2)cc1` [Example 325, (R)—N-(1-(5-carbamoyl-6-(4-(tetrahydro-2H-pyran-4-yl)phenylamino)pyrazin-2-yl)piperidin-3-yl)imidazo[1,2-a]pyridine-6-carboxamide], the IC50 was under 10 nM under setting [1] and under 10 nM (read-out: Btk (IC50)).

With `CN(C/C=C/C(=O)N1CCC[C@@H](Nc2nnc(C(N)=O)c(Nc3ccc(S(C)(=O)=O)cc3)n2)C1)C1CC1` [Example 107, (R,E)-3-(1-(4-(cyclopropyl(methyl)amino)but-2-enoyl)piperidin-3-ylamino)-5-(4-(methylsulfonyl)phenylamino)-1,2,4-triazine-6-carboxamide], the IC50 under setting [1] was under 10 nM.

For the compound `CCN1CCC(c2ccc(Nc3nc(N4CCC[C@@H](N5CCN(C)C5=O)C4)cnc3C(N)=O)cc2)CC1` [Example 257, (R)-3-(4-(1-ethylpiperidin-4-yl)phenylamino)-5-(3-(3-methyl-2-oxoimidazolidin-1-yl)piperidin-1-yl)pyrazine-2-carboxamide], the half-maximal inhibitory concentration (IC50) is, setting by setting: under setting [1], under 10 nM; (read-out: Btk (IC50)) under 10 nM.

In the case of `CN1CCN(c2ccc(Nc3nc(N4CCC[C@@H](NC(=O)N5CCCCC5)C4)cnc3C(N)=O)cc2)CC1` [Example 146, (R)-3-(4-(4-methylpiperazin-1-yl)phenylamino)-5-(3-(piperidine-1-carboxamido)piperidin-1-yl)pyrazine-2-carboxamide], the IC50 lay within 10 to 100 nM (Btk (IC50)) and 10 to 100 nM under setting [1].

Regarding `NC(=O)c1ncc(N2CCC[C@@H](NC(=O)C3CC3)C2)nc1Nc1ccc(C2CCN(C3CCCC3)CC2)cc1` [Example 299, (R)-3-(4-(1-cyclopentylpiperidin-4-yl)phenylamino)-5-(3-(cyclopropanecarboxamido)piperidin-1-yl)pyrazine-2-carboxamide], the IC50 is under 10 nM under setting [1] and under 10 nM (read-out: Btk (IC50)).

Regarding `COc1ccc(C(=O)N[C@@H]2CCCN(c3cnc(C(N)=O)c(Nc4ccc5ncsc5c4)n3)C2)cc1` [Example 121, (R)-3-(benzo[d]thiazol-6-ylamino)-5-(3-(4-methoxybenzamido)piperidin-1-yl)pyrazine-2-carboxamide], the IC50 by setting is: under setting [1], 10 to 100 nM; (read-out: Btk (IC50)) 10 to 100 nM.

The term IC50 denotes the point on the concentration scale where inhibition reaches its midpoint.

The record behind these values is patent US9656988B2 (Pharmacyclics LLC, priority 2013, dated 2017).
